These results are taken from PubChem BioAssay AID624376 (Broad Institute, 2012).

Records with an inconclusive call do not appear. The source made the active and inactive calls. No rule for the calls is given here.

The first experiment can be described thus: inhibitors of EBV LMP1 NF-kappaB signaling – cell-based, luciferase reporter, luminescence, dry powder, set 2, dose response (AID 624376). The following applies: LMP1-induced NF-kappaB luciferase reporter cells, luminescence; at 16 µM (top of the series). On the technique in general: In a reporter assay the amount or activity of a reporter protein is the signal.
`Cc1noc(C)c1S(=O)(=O)Nc1ccc2c(c1)C(=O)N([C@H](C)CO)C[C@H](C)[C@H](CN(C)Cc1ccc(C(F)(F)F)cc1)OCCCC[C@H](C)O2`: the activity change, negative = inhibition was -0.443% (inactive).

Still in this experiment, the particulars now being: LMP1-induced NF-kappaB luciferase reporter cells, luminescence; at 30 µM (top of the series).
Regarding `C[C@H](NC(=O)C[C@@H]1C=C[C@H](NC(=O)Cc2ccccn2)[C@H](CO)O1)c1ccccc1`, the activity change, negative = inhibition was -8.89% (inactive). Still for that read-out and setting: to `Cc1noc(C)c1S(=O)(=O)Nc1ccc2c(c1)C(=O)N([C@@H](C)CO)C[C@H](C)[C@H](CN(C)Cc1ccc(C(F)(F)F)cc1)OCCCC[C@@H](C)O2` belongs 2.6% (inactive).

Staying with this experiment, now noted: LMP1-induced NF-kappaB luciferase reporter cells, luminescence; at 35 µM (top of the series).
Regarding `Cc1noc(C)c1S(=O)(=O)Nc1ccc2c(c1)C(=O)N([C@@H](C)CO)C[C@H](C)[C@@H](CN(C)Cc1ccc(C(F)(F)F)cc1)OCCCC[C@H](C)O2`, the activity change, negative = inhibition is -1.9% (inactive). For `C[C@H](CO)N1C[C@H](C)[C@H](CN(C)Cc2ccc(C(F)(F)F)cc2)Oc2ccc(NC(=O)Cc3ccccc3)cc2CC1=O`, the activity change, negative = inhibition was 3.81% (inactive). Take `COc1ccccc1C(=O)Nc1ccc2c(c1)C(=O)N(C)[C@@H]1CC[C@H](CC(=O)NCCc3ccncc3)O[C@H]1CO2`: the activity change, negative = inhibition is -9.84% (inactive). On the same count and under the same terms, the same measure for `Cc1noc(C)c1S(=O)(=O)Nc1ccc2c(c1)C(=O)N([C@H](C)CO)C[C@@H](C)[C@H](CN(C)Cc1ccc(C(F)(F)F)cc1)OCCCC[C@H](C)O2`: -0.786% (inactive); for `O=C(Cc1ccccn1)NCC[C@@H]1CC[C@H](NC(=O)Nc2ccc(Cl)cc2)[C@H](CO)O1`: -9.97% (inactive). Same read-out and setting: the same measure for `C[C@@H](NC(=O)C[C@H]1C=C[C@H](NC(=O)Cc2ccccn2)[C@H](CO)O1)c1ccccc1`: -2.05% (inactive); for `C[C@H](NC(=O)C[C@@H]1C=C[C@H](NC(=O)Cc2ccccn2)[C@@H](CO)O1)c1ccccc1`: 5.95% (inactive).

As to `O=C(Cc1ccccn1)NCC[C@H]1CC[C@@H](NC(=O)Nc2ccc(Cl)cc2)[C@@H](CO)O1`, the activity change, negative = inhibition was 0.728% (inactive). Take `C[C@@H]1CN([C@@H](C)CO)C(=O)c2c(c3ccccc3n2C)-c2ccccc2CO[C@@H]1CN(C)C(=O)Nc1ccc(F)cc1`: the activity change, negative = inhibition is 6.54% (inactive). Still for that read-out and setting: to `CN(C)c1ccc2c(c1)[C@@H]1C[C@@H](CC(=O)NCc3ccc(Oc4ccccc4)cc3)O[C@@H](CO)[C@@H]1O2` belongs -26.2% (inactive); to `CC(C)(C)[S@@](=O)N1Cc2cc(C(=O)NCCc3ccncc3)nc(-c3cccc(-c4cccnc4)c3)c2[C@H]1CCO`, -10.1% (inactive).

In the case of `C[C@@H](NC(=O)C[C@H]1C=C[C@@H](NC(=O)Cc2ccccn2)[C@@H](CO)O1)c1ccccc1`, the activity change, negative = inhibition was -14% (inactive).

Regarding `C[C@@H](NC(=O)C[C@@H]1C=C[C@@H](NC(=O)Cc2ccccn2)[C@H](CO)O1)c1ccccc1`, the activity change, negative = inhibition was -0.374% (inactive). Still for that read-out and setting: the same measure for `C[C@H](NC(=O)C[C@H]1C=C[C@@H](NC(=O)Cc2ccccn2)[C@@H](CO)O1)c1ccccc1`: -0.671% (inactive); for `O=C(Cc1ccccn1)NCC[C@@H]1CC[C@@H](NC(=O)Nc2ccc(Cl)cc2)[C@@H](CO)O1`: -0.581% (inactive).

Take `Cc1noc(C)c1S(=O)(=O)Nc1ccc2c(c1)C(=O)N([C@H](C)CO)C[C@H](C)[C@@H](CN(C)Cc1ccc(C(F)(F)F)cc1)OCCCC[C@H](C)O2`: the activity change, negative = inhibition was 27.4% (inactive). Take `Cc1noc(C)c1S(=O)(=O)Nc1ccc2c(c1)C(=O)N([C@H](C)CO)C[C@H](C)[C@H](CN(C)Cc1ccc(C(F)(F)F)cc1)OCCCC[C@@H](C)O2`: the activity change, negative = inhibition is 16.1% (inactive). On the same count and under the same terms, the same measure for `C[C@@H](NC(=O)C[C@@H]1C=C[C@H](NC(=O)Cc2ccccn2)[C@@H](CO)O1)c1ccccc1`: -7.31% (inactive). Still for that read-out and setting: the same measure for `C[C@@H]1CN([C@H](C)CO)C(=O)Cc2cc(NC(=O)Cc3ccccc3)ccc2O[C@H]1CN(C)Cc1ccc(C(F)(F)F)cc1`: -5.26% (inactive); for `Cc1noc(C)c1S(=O)(=O)Nc1ccc2c(c1)C(=O)N([C@H](C)CO)C[C@@H](C)[C@@H](CN(C)Cc1ccc(C(F)(F)F)cc1)OCCCC[C@H](C)O2`: 16.2% (inactive); for `Cc1noc(C)c1S(=O)(=O)Nc1ccc2c(c1)C(=O)N([C@@H](C)CO)C[C@@H](C)[C@@H](CN(C)Cc1ccc(C(F)(F)F)cc1)OCCCC[C@@H](C)O2`: -7.77% (inactive).

For `C[C@H]1CN([C@@H](C)CO)C(=O)c2c(c3ccccc3n2C)-c2ccccc2CO[C@H]1CN(C)C(=O)Nc1ccc(F)cc1`, the activity change, negative = inhibition was 1.49% (inactive). On the same count and under the same terms, to `O=C(Cc1ccccn1)NCC[C@H]1CC[C@@H](NC(=O)Nc2ccc(Cl)cc2)[C@H](CO)O1` belongs -2.95% (inactive); to `CS(=O)(=O)Nc1ccc2c(c1)[C@@H]1C[C@H](CC(=O)NCC3CC3)O[C@H](CO)[C@@H]1O2`, -9.8% (inactive). Still for that read-out and setting: the same measure for `C[C@H](NC(=O)C[C@H]1C=C[C@H](NC(=O)Cc2ccccn2)[C@@H](CO)O1)c1ccccc1`: 10.7% (inactive); for `O=C(C[C@@H]1C[C@H]2c3cc(NS(=O)(=O)c4ccc(F)cc4)ccc3O[C@H]2[C@@H](CO)O1)NC1CCCCC1`: 2.38% (inactive). Still for that read-out and setting: to `CO[C@H]1CN(C)C(=O)c2ccc(NC(=O)C3CC3)cc2OC[C@H](C)N(C(=O)c2ccccn2)C[C@H]1C` belongs -14.8% (inactive). As to `O=C(C[C@@H]1C[C@@H]2c3cc(NC(=O)c4cccnc4)ccc3O[C@@H]2[C@H](CO)O1)NCC(F)(F)F`, the activity change, negative = inhibition was -8.21% (inactive). The same measure, in the same setting: the same measure for `CO[C@@H]1CN(C)C(=O)c2ccc(NC(C)=O)cc2OC[C@@H](C)N(Cc2ccccc2F)C[C@H]1C`: 0.725% (inactive).

With `O=C(C[C@H]1C[C@@H]2c3cc(NS(=O)(=O)c4ccc(F)cc4)ccc3O[C@@H]2[C@H](CO)O1)NC1CCCCC1`, the activity change, negative = inhibition was -0.993% (inactive).

Turning to `C[C@H](NC(=O)C[C@H]1C=C[C@@H](NC(=O)Cc2ccccn2)[C@H](CO)O1)c1ccccc1`, the activity change, negative = inhibition was 0.463% (inactive). On the same count and under the same terms, the same measure for `O=C(Cc1ccccn1)NCC[C@@H]1CC[C@@H](NC(=O)Nc2ccc(Cl)cc2)[C@H](CO)O1`: 0.177% (inactive).

For `O=C(Cc1ccccn1)NCC[C@H]1CC[C@H](NC(=O)Nc2ccc(Cl)cc2)[C@@H](CO)O1`, the activity change, negative = inhibition was 4.16% (inactive).

Consider `CS(=O)(=O)Nc1ccc2c(c1)[C@H]1C[C@@H](CC(=O)NCC3CC3)O[C@@H](CO)[C@H]1O2`, for which the activity change, negative = inhibition is 5.22% (inactive). On the same count and under the same terms, the same measure for `C[C@H](CO)N1C[C@H](C)[C@@H](CN(C)Cc2ccc(C(F)(F)F)cc2)Oc2ccc(NC(=O)Cc3ccccc3)cc2CC1=O`: 17.6% (inactive); for `C[C@@H]1CN([C@@H](C)CO)C(=O)c2c(c3ccccc3n2C)-c2ccccc2CO[C@H]1CN(C)C(=O)Nc1ccc(F)cc1`: -7.17% (inactive); for `C[C@H](NC(=O)C[C@@H]1C=C[C@@H](NC(=O)Cc2ccccn2)[C@@H](CO)O1)c1ccccc1`: 2.64% (inactive).
